Experimental data from ChEMBL document CHEMBL6109146, “Discovery of New Pyrazolone Carbothioamide Derivatives as Potent Antifungal Agents for the Treatment of Candidiasis and Cryptococcosis” (J Med Chem, 2025).
Active and inactive are the calls of the source. The rule behind the calls is not given here.

Key:
Nakaseomyces glabratus [1] = assay: Antifungal activity against Candida glabrata 9256 assessed as inhibition of fungal growth incubated for 48 to 72 hrs by microplate reader analysis; format: functional; conditions: time 48-72 hrs
Cryptococcus neoformans [2] = assay: Antifungal activity against Cryptococcus neoformans H99 assessed as inhibition of fungal growth incubated for 48 to 72 hrs by microplate reader analysis; format: functional; conditions: time 48-72 hrs
Candida albicans [3] = assay: Antifungal activity against Candida albicans 103 assessed as inhibition of fungal growth incubated for 48 to 72 hrs by microplate reader analysis; format: functional, organism-based; conditions: time 48-72 hrs
Cryptococcus gattii = assay: Antifungal activity against Cryptococcus gattii 01063P assessed as inhibition of fungal growth incubated for 48 to 72 hrs by microplate reader analysis; format: functional; conditions: time 48-72 hrs
Candida albicans [4] = assay: Antifungal activity against Candida albicans SC5314 assessed as inhibition of fungal growth incubated for 48 to 72 hrs by microplate reader analysis; format: functional, organism-based; conditions: time 48-72 hrs
Nakaseomyces glabratus [5] = assay: Antifungal activity against Candida glabrata 8535 assessed as inhibition of fungal growth incubated for 48 to 72 hrs by microplate reader analysis; format: functional; conditions: time 48-72 hrs
Candida albicans [6] = assay: Antifungal activity against Candida albicans 9296 assessed as inhibition of fungal growth incubated for 48 to 72 hrs by microplate reader analysis; format: functional, organism-based; conditions: time 48-72 hrs
[Candida] auris [7] = Antifungal activity against Candida auris 0030 assessed as inhibition of fungal growth incubated for 48 to 72 hrs by microplate reader analysis; format: functional, organism-based; conditions: Candidozyma auris, time 48-72 hrs
[Candida] auris [8] = Antifungal activity against Candida auris 0029 assessed as inhibition of fungal growth incubated for 48 to 72 hrs by microplate reader analysis; format: functional, organism-based; conditions: Candidozyma auris, time 48-72 hrs
[Candida] auris [9] = Antifungal activity against Candida auris 15448 assessed as inhibition of fungal growth incubated for 48 to 72 hrs by microplate reader analysis; format: functional, organism-based; conditions: Candidozyma auris, time 48-72 hrs
Cryptococcus neoformans [10] = assay: Antifungal activity against Cryptococcus neoformans 011409 assessed as inhibition of fungal growth incubated for 48 to 72 hrs by microplate reader analysis; format: functional; conditions: time 48-72 hrs
Cryptococcus neoformans [11] = assay: Antifungal activity against Cryptococcus neoformans HN-68 assessed as inhibition of fungal growth incubated for 48 to 72 hrs by microplate reader analysis; format: functional; conditions: time 48-72 hrs
Nakaseomyces glabratus [12] = assay: Antifungal activity against Candida glabrata 0161 assessed as inhibition of fungal growth incubated for 48 to 72 hrs by microplate reader analysis; format: functional; conditions: time 48-72 hrs

Structure (SMILES)	Activity (Nakaseomyces glabratus [1])	Activity (Cryptococcus neoformans [2])	Activity (Candida albicans [3])	Activity (Cryptococcus gattii)	Activity (Candida albicans [4])	Activity (Nakaseomyces glabratus [5])	Activity (Candida albicans [6])	Activity ([Candida] auris [7])	Activity ([Candida] auris [8])	Activity ([Candida] auris [9])	Activity (Cryptococcus neoformans [10])	Activity (Cryptococcus neoformans [11])	Activity (Nakaseomyces glabratus [12])
CCc1ccc(NC(=S)n2[nH]c(N)cc2=O)cc1	Active	Active	Active	Active	Active	Active	Active	Active	Active	Active	Active	Active	Active
Nc1cc(=O)n(C(=S)Nc2ccc(C(F)(F)F)cc2)[nH]1	Active	Not active; Compound Demonstrated Reduced Activity Compared To Lead Compound 1	Not active; Compound Demonstrated Reduced Activity Compared To Lead Compound 1	Not active; Compound Demonstrated Reduced Activity Compared To Lead Compound 1	Not active; Compound Demonstrated Reduced Activity Compared To Lead Compound 1	Active	Not active; Compound Demonstrated Reduced Activity Compared To Lead Compound 1	Not active; Compound Demonstrated Reduced Activity Compared To Lead Compound 1	Not active; Compound Demonstrated Reduced Activity Compared To Lead Compound 1	Not active; Compound Demonstrated Reduced Activity Compared To Lead Compound 1	Not active; Compound Demonstrated Reduced Activity Compared To Lead Compound 1	Not active; Compound Demonstrated Reduced Activity Compared To Lead Compound 1	Active
Nc1cc(=O)n(C(=S)Nc2ccc(OC3CCCC3)cc2)[nH]1	Active	Active	Active	Active	Active	Active	Active	Active	Active	Active	Active	Active	Active
CNC(=O)c1ccc(NC(=S)n2[nH]c(N)cc2=O)cc1	Active	Not active; Compound Demonstrated Reduced Activity Compared To Lead Compound 1	Not active; Compound Demonstrated Reduced Activity Compared To Lead Compound 1	Not active; Compound Demonstrated Reduced Activity Compared To Lead Compound 1	Not active; Compound Demonstrated Reduced Activity Compared To Lead Compound 1	Active	Not active; Compound Demonstrated Reduced Activity Compared To Lead Compound 1	Not active; Compound Demonstrated Reduced Activity Compared To Lead Compound 1	Not active; Compound Demonstrated Reduced Activity Compared To Lead Compound 1	Not active; Compound Demonstrated Reduced Activity Compared To Lead Compound 1	Not active; Compound Demonstrated Reduced Activity Compared To Lead Compound 1	Not active; Compound Demonstrated Reduced Activity Compared To Lead Compound 1	Active
Nc1cc(=O)n(C(=S)Nc2ccc3c(c2)COC3=O)[nH]1	Not active; Decrease In Activity Observed	Not active; Decrease In Activity Observed	inactive	Not active; Decrease In Activity Observed	inactive	Not active; Decrease In Activity Observed	inactive	inactive	inactive	inactive	Not active; Decrease In Activity Observed	Not active; Decrease In Activity Observed	Not active; Decrease In Activity Observed
CCCCCCc1ccc(NC(=S)n2[nH]c(N)cc2=O)cc1	Active	Active	Active	Active	Active	Active	Active	Active	Active	Active	Active	Active	Active
S=C(Nc1ccc(C2CCCCC2)cc1)Nc1cc[nH]n1	inactive	inactive	inactive	inactive	inactive	inactive	inactive	inactive	inactive	inactive	inactive	inactive	inactive
Nc1cc(=O)n(C(=S)Nc2ccc(C(=O)c3ccccc3)cc2)[nH]1	Active	Active	inactive	Active	inactive	Active	inactive	inactive	inactive	inactive	Active	Active	Active
CC(=O)c1ccc(NC(=S)n2[nH]c(N)cc2=O)cc1	Active	Not active; Compound Demonstrated Reduced Activity Compared To Lead Compound 1	Not active; Compound Demonstrated Reduced Activity Compared To Lead Compound 1	Not active; Compound Demonstrated Reduced Activity Compared To Lead Compound 1	Not active; Compound Demonstrated Reduced Activity Compared To Lead Compound 1	Active	Not active; Compound Demonstrated Reduced Activity Compared To Lead Compound 1	Not active; Compound Demonstrated Reduced Activity Compared To Lead Compound 1	Not active; Compound Demonstrated Reduced Activity Compared To Lead Compound 1	Not active; Compound Demonstrated Reduced Activity Compared To Lead Compound 1	Not active; Compound Demonstrated Reduced Activity Compared To Lead Compound 1	Not active; Compound Demonstrated Reduced Activity Compared To Lead Compound 1	Active
Nc1cc(=O)n(C(=S)Nc2ccc(OC3CCCCC3)cc2)[nH]1	Active	Active	Active	Active	Active	Active	Active	Active	Active	Active	Active	Active	Active
CC(=O)c1ccc(NC(=O)n2[nH]c(N)cc2=O)cc1	inactive	inactive	inactive	inactive	inactive	inactive	inactive	inactive	inactive	inactive	inactive	inactive	inactive
Nc1ccn(C(=S)Nc2ccc(C3CCCCC3)cc2)n1	inactive	inactive	inactive	inactive	inactive	inactive	inactive	inactive	inactive	inactive	inactive	inactive	inactive
CCCCCCc1ccc(NC(=S)N2N=C(N)CCC2=O)cc1	inactive	inactive	inactive	inactive	inactive	inactive	inactive	inactive	inactive	inactive	inactive	inactive	inactive
Nc1cc(=O)n(C(=S)Nc2cccnc2)[nH]1	Not active; Decrease In Activity Observed	Not active; Decrease In Activity Observed	inactive	Not active; Decrease In Activity Observed	inactive	Not active; Decrease In Activity Observed	inactive	inactive	inactive	inactive	Not active; Decrease In Activity Observed	Not active; Decrease In Activity Observed	Not active; Decrease In Activity Observed
